Values of other authors, collected in patent publication US10272261B2, “Methods and compositions for treating ocular glaucoma” (Massachusetts Eye and Ear Infirmary, priority 2004, dated 2019).

Test system: pigmented rabbits
Settings: pigmented rabbits compared with albino rabbits; cited from earlier work

chloro-aluminum sulfonated phthalocyanine [CASPc]
duration of IOP reduction by ciliary body PDT: lasted a relatively shorter period than that of albino rabbits
